The text below walks through data of patent US5034544A, “Antiviral 2,3-bis-(aryl)-3-chloropropenal compounds” (priority 1989, dated 1991).

Values joined by “and” are separate entries in the source; they are usually repeats but may differ in a detail not shown here. Equal entries are not always repeated. Where two headings read alike, the source gives them in different places. Where only a bound is given, the exact number is not on record here.

Series [1] concerns human immunodeficiency virus (HIV). The experiment in a line: microbe, parasite or virus in culture. The protocol:
(§1) The assay basically involves the killing of T4 lymphocytes by HIV in cell cultures. Small amounts of HIV are added to cells, and at least two complete cycles of virus reproduction are necessary to obtain the required killing. Agents which interact with virions, cells, or virus gene-products to interfere with viral activities will protect cells from cytolysis. All tests are compared with a positive control done at the same time under identical conditions. The positive control in these experiments was AZT.
(§2) Harvest experiments were conducted in which HIV infected cell cultures were post-treated with the compound of Example 1 at a number of concentrations. T4 lymphocytes (CEM cell line) are exposed to HIV at a virus to cell ratio approximately 0.05, and plated along with noninfected control cells in 96-well microtiter plates. 2,3-Bis-(3,4-dimethoxyphenyl)-3-chloropropenal was dissolved in dimethyl sulfoxide, then diluted 1:200 in cell culture medium. Further dilutions (half-log10) are prepared before adding to an equal volume of medium containing either infected or noninfected cells. Plates are incubated at 37° C. in a 5% carbon dioxide atmosphere for 6 days. Triphenyl tetrazolium chloride (1% weight by volume) is added to each well and cultures are further incubated to allow color development of viable cells. Individual wells are analyzed spectrophotometrically to quantitate color production and are viewed microscopically for detection of viable cells and confirmation of protective activity. Drug-treated virus-infected cells are compared with drug-treated noninfected cells and other appropriate controls (untreated infected and untreated noninfected cells, drug-containing wells without cells, etc.) on the same plate. Data are reviewed in comparison with other tests done at the same time, and a determination about antiviral activity is made.
(§3) The solid line connecting the diamond symbols depicts the percentage of surviving HIV-infected cells treated with the present test sample at the indicated concentration relative to uninfected, untreated controls. This line represents the in-vitro anti-HIV activity of the sample. The dashed line connecting the square symbols depicts the percentage of surviving uninfected cells treated with the present compound relative to the same uninfected, untreated controls. This line represents the in-vitro growth inhibitory properties. The viral cytopathic effect in this experiment is indicated by a dotted reference line. This line show the extent of destruction of cells by the virus in the absence of treatment and is used as a quality control parameter. Values of this parameter […] 50% are considered acceptable in the current protocol. Reference line at 50% is depicted as alternating dots and dashes.

Series [2] concerns T4 lymphocytes (CEM cell line). The experiment in a line: in-vitro growth inhibition / cytotoxicity in noninfected T4 lymphocytes (UNINFECTED CULTURE). The class given is cell-based. The settings on record: for cytotoxicity to uninfected cells (in words): visual / microscopic; for IC50: Homo sapiens, CCRF-CEM, uninfected CEM cells; for Response (%), uninfected culture (surviving uninfected cells, % of uninfected untreated control): 6 days, Tables 1-3 = separate experiments, 8640 min. How it is done: as §1, §2, §3
(§4) Also, every attempt was made to reduce variability in the assay procedure set forth hereinabove and the values for EC50, IC50 and Therapeutic Index (TI) were determined within experimental limitations.

Assay in series [3]: as above
The class given is cell-based. As to conditions: human, cem cells, 6 days, Table 4, read-out: Response (%), uninfected culture (surviving uninfected cells, % of uninfected untreated control). The protocol: as §1, §2, §3, §4

[4] abbreviates: Human immunodeficiency virus 1, CCRF-CEM, in Homo sapiens, 144 h, read-out: Response (%), infected culture (surviving HIV-infected cells, % of uninfected untreated control).

Take `COc1ccc(C(Cl)=C(C=O)c2ccc(OC)cc2)cc1` [2,3-di-(4-methoxyphenyl)-3-chloro-acrylaldehyde, reference compound]: the “anti-HIV activity in cell culture (in words)” value in series [1] is “found unacceptable for further preclinical consideration”.
`Cc1cn([C@H]2C[C@H](N=[N+]=[N-])[C@@H](CO)O2)c(=O)[nH]c1=O` [AZT, azidothymidine, reference compound]: in series [2] (uninfected culture), the “cytotoxicity to uninfected cells (in words)” value is given as “exhibited microscopic cytotoxicity to uninfected cells”.
For the compound `COc1ccc(C(Cl)=C(C=O)c2ccc(OC)c(OC)c2)cc1OC` [Example 1, 2,3-Bis-(3,4-Dimethoxyphenyl)-3-Chloropropenal], the IC50 in series [2] (FIG. 1 / Table 1 experiment, read-out: IC50 (inhibition concentration required for 50% of cell growth)) was more than 83.7 µg/mL. Also, in series [2] (FIG. 4 / Table 4 experiment, read-out: IC50 (molar value), cell growth), the IC50 was more than 230 µM. The “Response (%), uninfected culture (surviving uninfected cells, % of uninfected untreated control)” value (“Response (%), uninfected culture” below) in series [2] (dose 2.64 × 10^+1 μg/ml) was 112.4% and 109.3% and 115.9%. For the same compound, the “Response (%), uninfected culture” value in series [2] (dose 2.65 × 10^+0 μg/ml) was 103.5% and 106.3% and 108.3%. The “Response (%), uninfected culture” value in series [2] (dose 2.65 × 10^-1 μg/ml) is 102.7% and 99.7% and 103.4%. Besides, in series [2] (dose 2.66 × 10^-2 μg/ml), the “Response (%), uninfected culture” value was 99.2% and 104.4%. In addition, the “Response (%), uninfected culture” value in series [2] (dose 8.37 × 10^+1 μg/ml) was 112.2% and 91.9% and 114.3%. Also, the “Response (%), uninfected culture” value in series [2] (dose 8.38 × 10^+0 μg/ml) was 106.0% and 103.1% and 113.1%. Further, the “Response (%), uninfected culture” value in series [2] (dose 8.39 × 10^-1 μg/ml) was 105.6% and 101.2% and 107.0%. In addition, in series [2] (dose 8.40 × 10^-2 μg/ml), the “Response (%), uninfected culture” value is 104.5% and 103.1% and 99.6%. In addition, the “cell growth in uninfected culture (in words)” value in series [2] (uninfected culture, Tables 1-4) is listed as “cell growth actually increased in most of these test results”. The “cytotoxicity to uninfected cells (in words)” value in series [2] (uninfected culture) is listed as “no significant visual or microscopic cytotoxicity was observed in the uninfected culture”. The viability at 144 h, 230 µM in series [3] (dose 2.30 × 10^-4 Molar) was found to be 77.3%. The viability at 144 h, 23.1 µM in series [3] (dose 2.31 × 10^-5 Molar) was 90.2%. Further, the viability at 144 h, 2.31 µM in series [3] (dose 2.31 × 10^-6 Molar) came to 92.7%. Besides, in series [3] (dose 2.31 × 10^-7 Molar), the viability at 144 h, 0.231 µM was found to be 104%. Moreover, the viability at 144 h, 73 µM in series [3] (dose 7.30 × 10^-5 Molar) was determined as 83.5%. Besides, in series [3] (dose 7.31 × 10^-6 Molar), the viability at 144 h, 7.31 µM is 94.3%. Further, the viability at 144 h, 0.732 µM in series [3] (dose 7.32 × 10^-7 Molar) amounted to 96.5%. Besides, the viability at 144 h, 0.0733 µM in series [3] (dose 7.33 × 10^-8 Molar) was found to be 101%. Further, in series [1], the “selectivity compared to AZT (in words)” value is given as “pronounced at the reported concentrations” and the “selectivity, infected vs. uninfected cells (in words)” value was “selective, exhibiting toxicity to infected cells, yet not toxic towards normal cells or cells free of virus”. In series [1] (setting [4]), the viability at 0.0266 µg/mL was 6.9%, the viability at 0.0733 µM was 18.5%, the viability at 0.084 µg/mL worked out at 6.8% and the viability at 0.231 µM is 18%. Also, in series [1] (setting [4]), the viability at 0.265 µg/mL was 5.4%, the viability at 0.266 µg/mL was determined as 8.2%, the viability at 0.732 µM was 18.8% and the viability at 0.839 µg/mL came to 7.2%. Moreover, in series [1] (setting [4]), the viability at 2.31 µM was determined as 19.9%, the viability at 2.65 µg/mL came to 6.6%, the viability at 7.31 µM turned out to be 60.2% and the viability at 23.1 µM was 79.5%. For the same compound, in series [1] (setting [4]), the viability at 26.4 µg/mL turned out to be 84.6%, the viability at 73 µM is 76.2%, the viability at 83.7 µg/mL stood at 94.8% and the viability at 230 µM stood at 75.4%. The EC50 in series [1] (Human immunodeficiency virus 1, CCRF-CEM, read-out: EC50 (effective kill concentration for 50% of the experimental virus)) was approximately 15.6 µg/mL. Also, in series [1] (Human immunodeficiency virus 1, CCRF-CEM, read-out: EC50 (molar value)), the EC50 was found to be 5.45 µM. Further, the “TI50 (therapeutic index)” value in series [1] (human, cem cells, 8640 min) is recorded as > 4.22×10^+1.
Regarding `O=CC(=C(Cl)c1ccc2c(c1)OCO2)c1ccc2c(c1)OCO2` [Example 3, 2,3-Bis-(3,4-Methylenedioxyphenyl)-3-Chloropropenal], in series [1], the “anti-HIV activity in cell culture (in words)” value is recorded as “produced mixed results under the experimental assay procedure reported hereinabove, the results clearly indicated antiviral activity” and the “antiviral activity relative to 2,3-bis-(3,4-dimethoxyphenyl)-3-chloropropenal (in words)” value is listed as “significantly less than that of the structurally analogous test compound”.
